The values that follow come from patent publication US10335488B2, “Method for treating cancer by photodynamic therapy” (D. R. NANO CO., LTD., priority 2014, dated 2019).

Data set [1] deals with cancer cells (MDA-MB-231, MCF-7, PC-3, HeLa, HT-29) and normal cells (MRC-5, Clone-1-5c-4, NIH3T3). Description: Cytotoxicity (Dark) by MTT analysis. Type of data set: cell-based, human; mouse (NIH/3T3). To be noted: 1 hour incubation, no laser. The procedure: In order to confirm of the cytotoxicity of MB NPs, 200 μL of a cell culture solution in which 1×10^4 ea of cells were dispersed was put into a dish for cell culture (96-well plate) and cultured (5% CO2, 37° C.) in an artificial culture chamber for 24 hours, and the dish was washed with DPBS, and then a mixture solution of 20 μL of MB NPs and 180 μL of a cell culture solution was added to the cell, and the resulting culture solution was cultured in the same artificial culture chamber for 1 hour. After the dish was washed with DPBS, the number of each cell was observed by the MTT analysis method.
The experiment was performed on cancer cells and normal cells, and MDA-MB-231 cell, MCF-7 cell, PC-3 cell, HeLa cell, and HT-29 cell are illustrated in FIGS. 7a, 7b, 7c, 7d, and 7e, respectively, and normal cells MRC-5, Clone-1-5c-4, and NIH3T3 are illustrated in FIGS. 8a to 8c, respectively.

Data set [2] deals with cancer cells MDA-MB-231, MCF-7, PC-3, HeLa, HT-29; normal cells MRC-5, clone 1-5c-4, NIH/3T3. Description: Accumulation in cells by fluorescence microscopy. It is filed as cell-based, human; mouse (NIH/3T3). To be noted: 1 hour incubation, fluorescence microscope. The method, then: In order to determine if the nanoparticles (MB NPs) prepared in Example 1 would be accumulated in the cancer cell, 1×10^5 of each of cancer cells MDA-MB-231 (breast, mammary gland/human, Korean Cell Line Bank), MCF-7 (breast, mammary gland/human, Korean Cell Line Bank), PC-3 (prostate; grade 4; metastasis to bone/human, Korean Cell Line Bank), HeLa (cervix/human, Korean Cell Line Bank), and HT-29 (Colon/human, Korean Cell Line Bank) was respectively dispersed in 2 mL of cell culture solution [DMEM (WELGENE) culture solution was used for the HeLa cell, and RPMI1640 (WELGENE) culture solution was used for the other cells]. And then the solution was put into a dish for cell culture (35 mm, glass-bottomed dish), and cultured in a culture chamber (5% CO2, 37° C.). After 24 hours, the dish was washed with 2 mL of DPBS (WELGENE), and 1.8 mL of the culture solution and 0.2 mL of the nanoparticles were added thereto, and the resulting dish was stored in a culture chamber (5% CO2, 37° C.) for 1 hour. The stored cell culture dish was washed with 2 mL of DPBS, cells were fixed with 1 mL of a cell fixation solution, and then fluorescence images were observed by fluorescence microscope (LEICA DMI3000B equipped with a Nuance FX multispectral imaging system, CRI). […]

For the molecule `CN(C)c1ccc2nc3ccc(=[N+](C)C)cc-3sc2c1` [MB Sol., methylene blue], in data set [1], the “cytotoxicity of the material (Dark)” value was “no cytotoxicity of the material itself”. Moreover, the “infiltration capacity into cell” value in data set [2] was “not found in the cell”.
